Measured values: patent US20230270772A1, “USE OF 5'-METHYLTHIOADENOSINE IN PREPARATION OF OBESITY-SUPPRESSING DRUGS OR HEALTH CARE PRODUCTS” (Zhejiang Chinese Medical University, priority 2022, published 2023)

Key:
[1] = tested on: high-fat diet-induced obesity in C57/BL mice; assay: Comparison of MTA and adenosine in suppressing high-fat diet-induced obesity; type: in vivo; conditions: 8-week-old C57BL/6 mice, tube-feeding 100 mg/kg/day, FIG. 2A-2D
Source text: Experimental animals: 8-week-old C57BL/6 mice; Diets and drugs: low-fat diet (10% kcal as fat, product #D12450J, Research Diets), high-fat diet (60% kcal as fat, product #D12492, Research Diets), MTA, and adenosine.

[2] = tested on: HepG2 hepatoma cells; assay: Suppression of uric acid-induced lipogenesis in HepG2 hepatoma cells (oil red staining); type: cell-based; conditions: uric acid 120 μg/mL + 0.05, 0.1, 0.5, 1.0 and 5.0 μg/mL for 24 h, FIG. 3
Procedure: HepG2 hepatoma cells were induced to synthesize fat by uric acid (120 μg/mL). After 24 h, the cells were divided into two groups for testing. The cells of model group continued to be induced with uric acid (120 μg/mL) for 24 h.

[3] = tested on: high-fat diet-induced obesity in C57BL/6 mice; assay: Suppression of high-fat diet-induced obesity, gavage for 9 weeks; type: in vivo; conditions: 100 mg/kg/day by gavage
Procedure: Eight-week-old C57BL/6 mice were divided into three groups (a control group, a model group, and a drug-treated group) (FIG. 4A). The mice of control group were fed with a low-fat diet, and the mice of model group were fed with a high-fat diet ad libitum. The mice of drug-treated group were fed with high-fat diet+5′-methylthioadenosine (100 mg/kg/day) by gavage for 9 weeks, during which the body weight of the mice was recorded, and OGTT and ITT thereof were conducted.

[4] = tested on: high-fat diet-induced obesity in C57BL/6 mice; assay: Suppression of high-fat diet-induced obesity, gavage for 11 weeks; type: in vivo; conditions: 50 and 100 mg/kg/day by gavage
Procedure: Eight-week-old C57BL/6 mice were divided into three groups (a control group, a model group, and a drug-treated group). The mice of control group were fed with a low-fat diet, the mice of model group were fed with a high-fat diet, and the mice of drug-treated group were fed with high-fat diet+5′-methylthioadenosine (50 and 100 mg/kg/day) by gavage for 11 weeks, during which the body weight of the mice was recorded, and OGTT and ITT thereof were conducted.

SMILES	obesity-suppressing effect (body weight, liver weight, subcutaneous and visceral fat weight) [1]	uric acid-induced lipogenesis (amount of synthetic fat, oil red staining) [2]	high-fat diet-induced obesity (body weight) ([3]; FIG. 4B)	oral glucose tolerance and insulin tolerance (OGTT, ITT) ([3]; FIG. 4H, 4I)	liver lipogenesis and gains of subcutaneous and visceral fats ([3]; after sacrifice, FIG. 4C-4G)	high-fat diet-induced obesity (body weight) ([4]; FIG. 5A, 5B)	oral glucose tolerance and insulin tolerance (OGTT, ITT) ([4]; FIG. 5G-5J)	liver lipogenesis and gains of subcutaneous and visceral fats (perirenal, testicular) ([4]; after sacrifice, FIG. 5C-5F)
CSC[C@H]1O[C@@H](n2cnc3c(N)ncnc32)[C@H](O)[C@@H]1O [5′-methylthioadenosine, 5′-Methylthioadenosine]	significantly better than that of adenosine	significantly inhibiting uric acid-induced lipogenesis in HepG2 cells with a concentration gradient effect	significantly suppressing high-fat diet-induced obesity	improving oral glucose tolerance and insulin tolerance in mice	suppressing the liver lipogenesis and the gains of subcutaneous fats and visceral fats	significantly suppressing high-fat diet-induced obesity, with a concentration gradient effect	improving oral glucose tolerance and insulin tolerance in mice	suppressing the liver lipogenesis and the gains of subcutaneous fats and visceral fats, with a concentration gradient effect
Nc1ncnc2c1ncn2[C@@H]1O[C@H](CO)[C@@H](O)[C@H]1O [adenosine]	shown to inhibit the body weight and liver weight gains and fat accumulation in mice	–	–	–	–	–	–	–
